For assay [1], the system named is CXCL8/IL-8 release, SKOV3 ovarian cells. In words: LPA-induced IL-8 release in SKOV3 cells. Format: cell-based, human. The note with it: 1 uM LPA alone (stimulus). As to the method: (§1) Anti-LPA antibodies inhibit the LPA-dependant release of human CXCL8/IL-8 in conditioned media of SKOV3 ovarian cells. SKOV3 cells (Lot No 4255558, passage 14) were harvested with 2 ml of 1× Trypsin EDTA (Mediatech Inc, Cat. No 25-053-CV) and resuspended in 8 ml of complete medium (10% FBS, Mediatech Inc. Cat. no 35-011-CV). The cells were centrifuged for 5 min ([…]) and re-suspended in 5 ml of complete medium. Cells were counted in duplicate with 0.4% Trypan blue (10 ul cells plus 90 ul Trypan blue, Invitrogen, Cat. No 15250-061) using a hemocytometer. In a 96-well plate, 1×10^5 cells per well were seeded (final volume 100 ul/well). The cells were allowed to attach and form a confluent monolayer by incubating overnight at 37° C. On the following day, cells were gently washed two times with minimum media (1 mg/ml BSA in McCoy's medium with L-glutamine, Mediatech, Cat. No 10-050-CV). […] The CXCL8/IL-8 levels in each supernatant were measured using the Quantikine human CXCL8/IL-8 ELISA kit according to vendor instructions (R&D Systems, Minneapolis Minn., Cat. No D8000C). The IL-6 levels were measured by ELISA using the Quantikine human IL-6 immunoassay kit (R&D systems, Cat. No. D6050). Data were analyzed by one-way ANOVA followed by Bonferroni's post test and expressed as human IL-8 or human IL-6 fold increase.

For assay [2], the system named is IL-6 release, SKOV3 ovarian cells. In words: LPA-induced IL-6 release in SKOV3 cells. Format: cell-based, human. As to conditions: 1 uM LPA alone (stimulus). As to the method:
as §1

The test system of the next assay is SKOV3 cells. In words: Tumor cell migration in the scratch assay. It counts as cell-based. As to conditions: 17 hr. Here is the method: SKOV3 cells were plated at 15,000 cells per well in a 96-well plate. The following day the cells were serum starved in minimal media (McCoy's Media 5a, adjusted to contain L-Glutamine, 2.2 g/L Sodium Bicarbonate, 1% penicillin/streptomycin and 1 mg/ml BSA) for 24 hrs. At time 0 cells were scratched with a p200 pipet tip down the center of each well, washed with minimal media and pictures were taken prior to treatment. Cells were then treated with LPA (C18:1) at 0.2 uM, 1.0 uM and 10 uM concentrations which were pre-incubated at 37° C. with […] in the presence or absence of antibody at 150 ug/ml. Positive control (10% FBS treated cells) and antibody alone added to 1 uM LPA, were also tested. Cells were stimulated for 17 hrs at 37° C. in a 5% CO2 incubator. Pictures were taken again 17 hr post-treatment and % wound closure was measured by adjusting pictures to the same size and measuring the width of the scratch at time 0 and time 17 hr with a ruler. Data were analyzed by Student's t-test.

For a further assay, the system named is ovarian tumor SKOV3. In words: SKOV3 ovarian tumor progression and cytokines in nude mice. It counts as in vivo. As to the method:
Human mAb LT3015 reduced ovarian tumor SKOV3 progression and circulating cytokines in biological fluids. Nude mice were engrafted with either 10 mg/kg LT3015, vehicle, or 2 mg/kg paclitaxel (Taxol). After 56 days, mice were sacrificed and the peritoneal cavities were analyzed for tumor burden and ascites fluid accumulation. Tumors were harvested and final tumor weights were determined along with ascites volumes. Data were analyzed by ANOVA and student's t-test analysis. […] Serum and ascites levels of IL-6, IL-8, GM-CSF and VEGF were measured using ELISA kits from R&D systems, Minneapolis Minn.

Marks after values point to notes of the source that are not given here.

In the case of Lysophosphatidic acid [LPA], in assay [1], the “Human IL-8 Fold Increase (approx).” value was ~7.1## fold. Also, in assay [2], the “Human IL-6 Fold Increase (approx).” value was ~29## fold. In addition, the “Percent wound closure (approx.)” value is reported as around 65% in the assay with SKOV3 cells (0.2 uM LPA), around 81% in the assay on SKOV3 cells (1.0 uM LPA) and around 89% in the assay on SKOV3 cells (10 uM LPA).
With `CC(=O)O[C@H]1C(=O)[C@@]2(C)[C@H]([C@H](OC(=O)c3ccccc3)[C@]3(O)C[C@H](OC(=O)[C@H](O)[C@@H](NC(=O)c4ccccc4)c4ccccc4)C(C)=C1C3(C)C)[C@]1(OC(C)=O)CO[C@@H]1C[C@@H]2O` [Taxol, paclitaxel], the “Tumor Burden” value with ovarian tumor SKOV3 (56 days, LT3015 10 mg/kg, Taxol 2 mg/kg, mean ± S.E., vehicle 1274 ± 209) turned out to be 381 ± 73 mg. The “% Reduction (tumor burden)” value in the assay with ovarian tumor SKOV3 (56 days, LT3015 10 mg/kg, Taxol 2 mg/kg, versus vehicle) came out at 70.1%. The GM-CSF-ascites in the assay on ovarian tumor SKOV3 (LT3015 10 mg/kg (N = 4), Taxol 2 mg/kg (N = 1), vehicle 1200 ± 248.2) was 2054 ± 0 pg/mL. The IL-8-ascites with ovarian tumor SKOV3 (LT3015 10 mg/kg (N = 4), Taxol 2 mg/kg (N = 1), vehicle 2097 ± 132.1) amounted to 2187 ± 0 pg/mL. Moreover, in the assay with ovarian tumor SKOV3 (LT3015 10 mg/kg (N = 4), Taxol 2 mg/kg (N = 1), vehicle 3341 ± 202.5), the VEGF-ascites worked out at 3344 ± 0 pg/mL. This molecule yielded an Ascites volume in the assay with ovarian tumor SKOV3 (LT3015 10 mg/kg, Taxol 2 mg/kg, vehicle 3.563 ± 1.144) of 0.2 ± 0.0 mL. For the same molecule, in the assay on ovarian tumor SKOV3 (LT3015 10 mg/kg, Taxol 2 mg/kg, vehicle 84.56 ± 16.62), the IL-6-serum is given as 29.19 ± 9.568 pg/mL. For the same molecule, in the assay with ovarian tumor SKOV3 (LT3015 10 mg/kg, Taxol 2 mg/kg, vehicle 320.5 ± 43.18), the GM-CSF-serum is 340.2 ± 62.98 pg/mL. In the assay on ovarian tumor SKOV3 (LT3015 10 mg/kg, Taxol 2 mg/kg, vehicle 687.6 ± 114.1), this molecule came in with an IL-8-serum of 234.7 ± 83.04 pg/mL. The Ascites presence in the assay on ovarian tumor SKOV3 (animals with ascites / animals, LT3015 10 mg/kg, Taxol 2 mg/kg, vehicle 6/11) was 1/7.

(Values after patent US20120034631A1, “ANTI-LYSOPHOSPHOLIPID ANTIBODY DESIGN USING ANTIBODY STRUCTURES” (priority 2010, published 2012).)
